Numbered stars: 1 amine (or outer) side, 2 acyl side, 3 side chain; on linkers, the order of the positions; unused ones are H or OH. Square brackets hold non-standard residues; d marks the D form. Side chains are listed from the residue outwards. Peptide text beside a SMILES is read from it. * marks the point of attachment. C20 diacid = O=C(O)CCCCCCCCCCCCCCCCCCC(=O)*; C18 diacid = O=C(O)CCCCCCCCCCCCCCCCC(=O)*; αMePhe(2-F) = C[C@](N)(Cc1ccccc1F)C(=O)O; γGlu = O=C(O)[C@H](CCC(=O)[*:2])N[*:1]; αMeL = CC(C)C[C@](C)(N)C(=O)O; AEEA = NCCOCCOCC(=O)O; Aib = CC(C)(N)C(=O)O
Legend:
[1] = biological target: T1, gastric inhibitory peptide receptor (GIPR) (Homo sapiens, UniProt P48546); assay: cAMP pharmacological functional assay in presence of casein, hGIPR; format: cell-based; details: HEK293 cells expressing hGIPR, 0.1% Casein, geometric mean; read-out: hGIPR cAMP Rel EC50 nM (SEM, n)
T1 sequence (P48546 22-466): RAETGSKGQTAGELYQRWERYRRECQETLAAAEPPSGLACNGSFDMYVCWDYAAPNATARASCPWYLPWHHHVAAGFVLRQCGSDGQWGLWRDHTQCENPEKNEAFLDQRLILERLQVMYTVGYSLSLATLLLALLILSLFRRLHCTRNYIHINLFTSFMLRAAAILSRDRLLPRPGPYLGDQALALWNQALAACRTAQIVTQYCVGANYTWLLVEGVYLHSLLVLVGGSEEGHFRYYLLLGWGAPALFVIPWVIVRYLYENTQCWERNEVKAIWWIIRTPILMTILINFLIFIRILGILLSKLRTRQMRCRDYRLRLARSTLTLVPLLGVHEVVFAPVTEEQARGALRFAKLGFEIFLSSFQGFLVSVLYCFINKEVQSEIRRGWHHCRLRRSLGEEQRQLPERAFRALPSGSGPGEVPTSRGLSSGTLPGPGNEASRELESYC

[2] = biological target: human GLP-1 receptor (GLP-1R) (Homo sapiens, UniProt P43220); assay: cAMP pharmacological functional assay in presence of casein, hGLP-1R; format: cell-based; details: HEK293 cells expressing hGLP-1R, 0.1% Casein, geometric mean; read-out: hGLP1R cAMP Rel EC50 nM (SEM, n)
human GLP-1 receptor (GLP-1R), sequence (P43220 24-463): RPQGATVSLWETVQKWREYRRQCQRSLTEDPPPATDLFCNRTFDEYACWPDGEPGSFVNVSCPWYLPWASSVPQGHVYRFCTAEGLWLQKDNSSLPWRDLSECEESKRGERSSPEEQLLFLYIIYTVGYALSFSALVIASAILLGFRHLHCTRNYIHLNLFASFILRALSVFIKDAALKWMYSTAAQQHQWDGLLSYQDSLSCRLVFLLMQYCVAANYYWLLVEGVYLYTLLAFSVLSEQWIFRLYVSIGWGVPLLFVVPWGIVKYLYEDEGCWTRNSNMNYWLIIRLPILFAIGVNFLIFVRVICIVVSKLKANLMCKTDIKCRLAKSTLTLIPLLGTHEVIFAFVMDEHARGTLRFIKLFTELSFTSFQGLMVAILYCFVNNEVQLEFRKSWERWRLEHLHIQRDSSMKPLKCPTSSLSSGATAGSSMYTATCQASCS

EC50 [1] | EC50 [2] | Compound
0.287 nM | 0.702 nM | CC[C@H](C)[C@H](NC(=O)[C@H](CCCCN)NC(=O)[C@H](CC(=O)O)NC(=O)[C@H](CC(C)C)NC(=O)[C@H](CC(C)C)NC(=O)[C@@H](NC(=O)[C@H](CO)NC(=O)[C@H](Cc1ccc(O)cc1)NC(=O)[C@H](CC(=O)O)NC(=O)[C@H](CO)NC(=O)[C@@H](NC(=O)[C@H](Cc1ccccc1)NC(=O)[C@@H](NC(=O)CNC(=O)[C@H](CCC(=O)O)NC(=O)C(C)(C)NC(=O)[C@@H](N)Cc1ccc(O)cc1)[C@@H](C)O)[C@@H](C)O)[C@@H](C)CC)C(=O)N[C@@H](C)C(=O)N[C@@H](CCC(N)=O)C(=O)NC(C)(C)C(=O)N[C@@H](C)C(=O)N[C@@H](Cc1ccccc1)C(=O)N[C@H](C(=O)N[C@@H](CCC(=O)O)C(=O)N[C@@H](Cc1ccc(O)cc1)C(=O)N[C@@H](CC(C)C)C(=O)N[C@H](C(=O)N[C@@H](CCC(=O)O)C(=O)NCC(=O)NCC(=O)N1CCC[C@H]1C(=O)N[C@@H](CO)C(=O)N[C@@H](CO)C(=O)NCC(=O)N[C@@H](C)C(=O)N1CCC[C@H]1C(=O)N1CCC[C@H]1C(=O)N[C@@H](CCCCNC(=O)COCCOCCNC(=O)COCCOCCNC(=O)CC[C@H](NC(=O)CCCCCCCCCCCCCCCCCCC(=O)O)C(=O)O)C(=O)N[C@@H](CO)C(N)=O)[C@@H](C)CC)[C@@H](C)CC [Example 47] (H-Y[Aib]EGTFTSDYSILLDKIAQ[Aib]AFIEYLIEGGPSSGAPPK([AEEA-AEEA-γGlu-C20 diacid])S-NH2)
0.48 nM | 0.283 nM | CC[C@H](C)[C@H](NC(=O)[C@H](CCCCN)NC(=O)[C@H](CC(=O)O)NC(=O)[C@H](CC(C)C)NC(=O)[C@H](CC(C)C)NC(=O)[C@@H](NC(=O)[C@H](CO)NC(=O)[C@H](CCCCNC(=O)COCCOCCNC(=O)COCCOCCNC(=O)CC[C@H](NC(=O)CCCCCCCCCCCCCCCCCCC(=O)O)C(=O)O)NC(=O)[C@H](CC(=O)O)NC(=O)[C@H](CO)NC(=O)[C@@H](NC(=O)[C@H](Cc1ccccc1)NC(=O)[C@@H](NC(=O)CNC(=O)[C@H](CCC(=O)O)NC(=O)C(C)(C)NC(=O)[C@@H](N)Cc1ccc(O)cc1)[C@@H](C)O)[C@@H](C)O)[C@@H](C)CC)C(=O)N[C@@H](C)C(=O)N[C@@H](CCC(N)=O)C(=O)NC(C)(C)C(=O)N[C@@H](C)C(=O)N[C@@H](Cc1ccccc1)C(=O)N[C@H](C(=O)N[C@@H](CCC(=O)O)C(=O)N[C@@H](Cc1ccc(O)cc1)C(=O)N[C@@H](CC(C)C)C(=O)N[C@H](C(=O)N[C@@H](CCC(=O)O)C(=O)NCC(=O)NCC(N)=O)[C@@H](C)CC)[C@@H](C)CC [Example 70] (H-Y[Aib]EGTFTSDK([AEEA-AEEA-γGlu-C20 diacid])SILLDKIAQ[Aib]AFIEYLIEGG-NH2; N-terminus assumed)
0.166 nM | 1.02 nM | CC[C@H](C)[C@H](NC(=O)[C@H](CCCCN)NC(=O)[C@H](CC(=O)O)NC(=O)[C@H](CCCCNC(=O)COCCOCCNC(=O)COCCOCCNC(=O)CC[C@H](NC(=O)CCCCCCCCCCCCCCCCCCC(=O)O)C(=O)O)NC(=O)[C@H](CC(C)C)NC(=O)[C@@H](NC(=O)[C@H](CO)NC(=O)[C@H](Cc1ccc(O)cc1)NC(=O)[C@H](CC(=O)O)NC(=O)[C@H](CO)NC(=O)[C@@H](NC(=O)[C@H](Cc1ccccc1)NC(=O)[C@@H](NC(=O)CNC(=O)[C@H](CCC(=O)O)NC(=O)C(C)(C)NC(=O)[C@@H](N)Cc1ccc(O)cc1)[C@@H](C)O)[C@@H](C)O)[C@@H](C)CC)C(=O)N[C@@H](C)C(=O)N[C@@H](CCC(N)=O)C(=O)NC(C)(C)C(=O)N[C@@H](C)C(=O)N[C@@H](Cc1ccccc1)C(=O)N[C@H](C(=O)N[C@@H](CCC(=O)O)C(=O)N[C@@H](Cc1ccc(O)cc1)C(=O)N[C@@H](CC(C)C)C(=O)N[C@H](C(=O)N[C@@H](CCC(=O)O)C(=O)NCC(=O)NCC(N)=O)[C@@H](C)CC)[C@@H](C)CC [Example 71] (H-Y[Aib]EGTFTSDYSILK([AEEA-AEEA-γGlu-C20 diacid])DKIAQ[Aib]AFIEYLIEGG-NH2)
0.252 nM | 0.906 nM | CC[C@H](C)[C@H](NC(=O)[C@H](CCCCN)NC(=O)[C@H](CC(=O)O)NC(=O)[C@H](CC(C)C)NC(=O)[C@H](CC(C)C)NC(=O)[C@@H](NC(=O)[C@H](CO)NC(=O)[C@H](Cc1ccc(O)cc1)NC(=O)[C@H](CC(=O)O)NC(=O)[C@H](CO)NC(=O)[C@@H](NC(=O)[C@H](Cc1ccccc1)NC(=O)[C@@H](NC(=O)CNC(=O)[C@H](CCC(=O)O)NC(=O)C(C)(C)NC(=O)[C@@H](N)Cc1ccc(O)cc1)[C@@H](C)O)[C@@H](C)O)[C@@H](C)CC)C(=O)N[C@@H](C)C(=O)N[C@@H](CCC(N)=O)C(=O)NC(C)(C)C(=O)N[C@@H](CCCCNC(=O)COCCOCCNC(=O)COCCOCCNC(=O)CC[C@H](NC(=O)CCCCCCCCCCCCCCCCCCC(=O)O)C(=O)O)C(=O)N[C@@H](Cc1ccccc1)C(=O)N[C@H](C(=O)N[C@@H](CCC(=O)O)C(=O)N[C@@H](Cc1ccc(O)cc1)C(=O)N[C@@H](CC(C)C)C(=O)N[C@H](C(=O)N[C@@H](CCC(=O)O)C(=O)NCC(=O)NCC(N)=O)[C@@H](C)CC)[C@@H](C)CC [Example 72] (H-Y[Aib]EGTFTSDYSILLDKIAQ[Aib]K([AEEA-AEEA-γGlu-C20 diacid])FIEYLIEGG-NH2)
0.979 nM | 2.55 nM | CC[C@H](C)[C@H](NC(=O)[C@H](CCCCN)NC(=O)[C@H](CC(=O)O)NC(=O)[C@H](CC(C)C)NC(=O)[C@H](CC(C)C)NC(=O)[C@@H](NC(=O)[C@H](CO)NC(=O)[C@H](Cc1ccc(O)cc1)NC(=O)[C@H](CC(=O)O)NC(=O)[C@H](CO)NC(=O)[C@@H](NC(=O)[C@H](Cc1ccccc1)NC(=O)[C@@H](NC(=O)CNC(=O)[C@H](CCC(=O)O)NC(=O)C(C)(C)NC(=O)[C@@H](N)Cc1ccc(O)cc1)[C@@H](C)O)[C@@H](C)O)[C@@H](C)CC)C(=O)N[C@@H](C)C(=O)N[C@@H](CCC(N)=O)C(=O)NC(C)(C)C(=O)N[C@@H](C)C(=O)N[C@@H](Cc1ccccc1)C(=O)N[C@H](C(=O)N[C@@H](CCC(=O)O)C(=O)N[C@@H](Cc1ccc(O)cc1)C(=O)N[C@@H](CC(C)C)C(=O)N[C@H](C(=O)N[C@@H](CCCCNC(=O)COCCOCCNC(=O)COCCOCCNC(=O)CC[C@H](NC(=O)CCCCCCCCCCCCCCCCCCC(=O)O)C(=O)O)C(=O)NCC(=O)NCC(N)=O)[C@@H](C)CC)[C@@H](C)CC [Example 73] (H-Y[Aib]EGTFTSDYSILLDKIAQ[Aib]AFIEYLIK([AEEA-AEEA-γGlu-C20 diacid])GG-NH2)
 | 2.16 nM | CC[C@H](C)[C@H](NC(=O)[C@H](CC(C)C)NC(=O)[C@H](Cc1ccc(O)cc1)NC(=O)[C@@H](CCC(=O)O)NC(=O)[C@@H](NC(=O)[C@H](Cc1ccccc1)NC(=O)[C@H](Cc1c[nH]cn1)NC(=O)C(C)(C)NC(=O)[C@H](CCC(N)=O)NC(=O)[C@H](C)NC(=O)[C@H](CCCCNC(=O)COCCOCCNC(=O)COCCOCCNC(=O)CC[C@H](NC(=O)CCCCCCCCCCCCCCCCC(=O)O)C(=O)O)NC(=O)[C@H](CCC(=O)O)NC(=O)[C@H](CC(=O)O)NC(=O)[C@H](CC(C)C)NC(=O)[C@](C)(CC(C)C)NC(=O)[C@@H](NC(=O)[C@H](CO)NC(=O)[C@H](Cc1c[nH]cn1)NC(=O)[C@H](CC(=O)O)NC(=O)[C@H](CO)NC(=O)[C@@H](NC(=O)[C@](C)(Cc1ccccc1F)NC(=O)[C@@H](NC(=O)CNC(=O)[C@H](CCC(=O)O)NC(=O)C(C)(C)NC(=O)[C@@H](N)Cc1ccc(O)cc1)[C@@H](C)O)[C@@H](C)O)[C@@H](C)CC)[C@@H](C)CC)C(=O)N[C@@H](CCC(=O)O)C(=O)NCC(=O)NCC(N)=O [Example 180] (H-Y[Aib]EGT[αMePhe(2-F)]TSDHSI[αMeL]LDEK([AEEA-AEEA-γGlu-C18 diacid])AQ[Aib]HFI[dE]YLIEGG-NH2)

Compound | EC50 [1] | EC50 [2]
CC[C@H](C)[C@H](NC(=O)[C@H](CC(C)C)NC(=O)[C@H](Cc1ccc(O)cc1)NC(=O)[C@@H](CCC(=O)O)NC(=O)[C@@H](NC(=O)[C@H](Cc1ccccc1)NC(=O)[C@H](CCC(=O)O)NC(=O)C(C)(C)NC(=O)[C@H](CCC(N)=O)NC(=O)[C@H](C)NC(=O)[C@H](CCCCNC(=O)COCCOCCNC(=O)COCCOCCNC(=O)CC[C@H](NC(=O)CCCCCCCCCCCCCCCCCCC(=O)O)C(=O)O)NC(=O)[C@H](CCC(=O)O)NC(=O)[C@H](CC(=O)O)NC(=O)[C@H](CC(C)C)NC(=O)[C@](C)(CC(C)C)NC(=O)[C@@H](NC(=O)[C@H](CO)NC(=O)[C@@H](Cc1ccc(O)cc1)NC(=O)[C@H](CC(=O)O)NC(=O)[C@H](CO)NC(=O)[C@@H](NC(=O)[C@](C)(Cc1ccccc1F)NC(=O)[C@@H](NC(=O)CNC(=O)[C@H](CCC(=O)O)NC(=O)C(C)(C)NC(=O)[C@@H](N)Cc1ccc(O)cc1)[C@@H](C)O)[C@@H](C)O)[C@@H](C)CC)[C@@H](C)CC)C(=O)N[C@@H](CCC(=O)O)C(=O)NCC(=O)NCC(=O)N1CCC[C@H]1C(=O)N[C@@H](CO)C(=O)N[C@@H](CO)C(=O)NCC(=O)N[C@@H](C)C(=O)N1CCC[C@H]1C(=O)N1CCC[C@H]1C(=O)N1CCC[C@H]1C(=O)N[C@@H](CO)C(N)=O [Example 184] (H-Y[Aib]EGT[αMePhe(2-F)]TSD[dY]SI[αMeL]LDEK([AEEA-AEEA-γGlu-C20 diacid])AQ[Aib]EFI[dE]YLIEGGPSSGAPPPS-NH2) | 0.0477 nM | 
